From ChEMBL document CHEMBL1201862, “PubChem BioAssay data set” (2004)
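These data come from cells grown in 96-well plates and exposed to compound for 48 hours at five concentrations. Here, GI50 denotes the concentration required for 50% inhibition of growth.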 The source made the active and inactive calls. No stated cut-off is given here; in the data, active = GI50 up to about 1.1 µM and inactive = higher.

Assays:
Test in all cases: NCI tumour cell line growth inhibition, 48 h
[1] = system: CAKI-1
[2] = system: COLO 205
[3] = system: DU-145
[4] = system: HCC 2998
[5] = system: HOP-62
[6] = system: HT-29
[7] = system: K562
[8] = system: M14
[9] = system: MCF7
[10] = system: Malme-3M
[11] = system: NCI-H460
[12] = system: NCI-H522
[13] = system: OVCAR-4
[14] = system: OVCAR-5
[15] = system: PC-3
[16] = system: RXF 393
[17] = system: SF-268
[18] = system: CCRF-CEM
[19] = system: OVCAR-8
[20] = system: SR

SMILES | GI50 [1] | GI50 [2] | GI50 [3] | GI50 [4] | GI50 [5] | GI50 [6] | GI50 [7] | GI50 [8] | GI50 [9] | GI50 [10] | GI50 [11] | GI50 [12] | GI50 [13] | GI50 [14] | GI50 [15] | GI50 [16] | GI50 [17] | GI50 [18] | GI50 [19] | GI50 [20]
S=C(N/N=C\C(=N/NC(=S)N1CCCCC1)c1ccccc1)N1CCCCC1 | 2.15 µM (inactive) | 2.03 µM (inactive) | 1.57 µM (inactive) | 2.08 µM (inactive) | 2.43 µM (inactive) | 2.23 µM (inactive) | 5.68 µM (inactive) | 1.92 µM (inactive) | 2.81 µM (inactive) | 1.91 µM (inactive) | 2.14 µM (inactive) | 1.62 µM (inactive) | 1.76 µM (inactive) | 1.88 µM (inactive) | 1.92 µM (inactive) | 1.85 µM (inactive) | 1.99 µM (inactive) |  |  | 
OC1OC(c2ccc[nH]2)C(F)(F)C(F)(F)C1(F)F (stereo not given) | 87.3 µM (inactive) | 26.7 µM (inactive) | > 100 µM (inactive) |  | > 100 µM (inactive) | > 100 µM (inactive) |  | > 100 µM (inactive) | > 100 µM (inactive) | > 100 µM (inactive) | > 100 µM (inactive) | > 100 µM (inactive) | 73.1 µM (inactive) | > 100 µM (inactive) | > 100 µM (inactive) | > 100 µM (inactive) | > 100 µM (inactive) | 73.6 µM (inactive) | > 100 µM (inactive) | 
C1CNOCCCONCCCNOCCCONC1 | > 100 µM (inactive) | > 100 µM (inactive) | 58.9 µM (inactive) |  | 50.1 µM (inactive) | > 100 µM (inactive) | > 100 µM (inactive) | 72.1 µM (inactive) | 37.5 µM (inactive) | 30.1 µM (inactive) | 32.1 µM (inactive) | 67.6 µM (inactive) | 70.3 µM (inactive) | > 100 µM (inactive) | 27.6 µM (inactive) | 20.2 µM (inactive) | 85.9 µM (inactive) | > 100 µM (inactive) | 60.7 µM (inactive) | 
COc1cc2c3c(c1Oc1nnnn1-c1ccccc1)-c1c(ccc4c1OCO4)C[C@H]3N(C)CC2 |  | 32.2 µM (inactive) | 71 µM (inactive) | 20.7 µM (inactive) | 60.5 µM (inactive) | 18.5 µM (inactive) | 29.6 µM (inactive) | 18.7 µM (inactive) |  | 18.2 µM (inactive) | 36.9 µM (inactive) | 36.1 µM (inactive) |  | > 100 µM (inactive) | 38.6 µM (inactive) |  | 48.9 µM (inactive) | 24.5 µM (inactive) | 47.8 µM (inactive) | 46.7 µM (inactive)
CN1CNc2nc(N)n(C)c(=O)c2C1 |  |  | > 10 µM (inactive) | > 10 µM (inactive) |  | > 10 µM (inactive) | > 10 µM (inactive) | > 10 µM (inactive) |  | > 10 µM (inactive) | > 10 µM (inactive) | > 10 µM (inactive) | > 10 µM (inactive) | > 10 µM (inactive) |  | > 10 µM (inactive) | > 10 µM (inactive) | > 10 µM (inactive) | > 10 µM (inactive) | > 10 µM (inactive)
O=C1CNc2cc(N3CCN(c4ccccc4)CC3)ccc2N1 | > 100 µM (inactive) | > 100 µM (inactive) | > 100 µM (inactive) | > 100 µM (inactive) | > 100 µM (inactive) | > 100 µM (inactive) | > 100 µM (inactive) | > 100 µM (inactive) |  | > 100 µM (inactive) | > 100 µM (inactive) | > 100 µM (inactive) | > 100 µM (inactive) | > 100 µM (inactive) | > 100 µM (inactive) | > 100 µM (inactive) | > 100 µM (inactive) | > 100 µM (inactive) | > 100 µM (inactive) | > 100 µM (inactive)
CC(C)CCC[C@@H](C)[C@H]1CC[C@H]2[C@@H]3CC[C@H]4C[C@H](N)CC[C@]4(C)[C@H]3CC[C@]12C | 16.4 µM (inactive) | 21 µM (inactive) | 16.4 µM (inactive) | 16.4 µM (inactive) | 20 µM (inactive) | 18.3 µM (inactive) | 24.5 µM (inactive) | 13.8 µM (inactive) | 23.8 µM (inactive) | 17.2 µM (inactive) | 22 µM (inactive) | 21 µM (inactive) | 21.9 µM (inactive) | 15.4 µM (inactive) | 5.87 µM (inactive) | 22.2 µM (inactive) | 26 µM (inactive) | 2.83 µM (inactive) | 24.4 µM (inactive) | 
COc1ccc2c(c1OC)C(C(Cl)(Cl)Cl)N1CCc3cc4c(cc3C1=C2)OCO4 (stereo not given) | 40.8 µM (inactive) | 5.45 µM (inactive) | 16.3 µM (inactive) | 10.8 µM (inactive) |  | 25.8 µM (inactive) |  | 28.4 µM (inactive) | 28.1 µM (inactive) | 11.5 µM (inactive) | 10.7 µM (inactive) | 13.9 µM (inactive) | 5.93 µM (inactive) | 72.6 µM (inactive) | 24.7 µM (inactive) |  | 3.41 µM (inactive) | 6.71 µM (inactive) | 8.11 µM (inactive) | 
C=C[C@H]1CN2CC[C@H]1C[C@@H]2[C@@H](O)c1ccnc2ccccc12 [CINCHONINE] | > 100 µM (inactive) | > 100 µM (inactive) | > 100 µM (inactive) |  | 89.9 µM (inactive) | 46.8 µM (inactive) | 55.2 µM (inactive) | 38.1 µM (inactive) | > 100 µM (inactive) | > 100 µM (inactive) | > 100 µM (inactive) | > 100 µM (inactive) | 58.6 µM (inactive) | > 100 µM (inactive) | > 100 µM (inactive) | > 100 µM (inactive) | > 100 µM (inactive) |  | > 100 µM (inactive) | 
COc1c2cc([N+](=O)[O-])cc1CNC(=O)CN1CCOCCOCCN(CCOCCOCC1)CC(=O)NC2 | > 100 µM (inactive) | > 100 µM (inactive) | > 100 µM (inactive) | > 100 µM (inactive) | > 100 µM (inactive) | > 100 µM (inactive) | > 100 µM (inactive) | > 100 µM (inactive) | > 100 µM (inactive) | > 100 µM (inactive) | > 100 µM (inactive) | > 100 µM (inactive) | > 100 µM (inactive) | > 100 µM (inactive) | > 100 µM (inactive) | > 100 µM (inactive) | > 100 µM (inactive) | > 100 µM (inactive) | > 100 µM (inactive) | 
O=C(N/N=C(COc1ccc(Cl)cc1)\N=C\c1cccnc1)c1ccncc1 | > 100 µM (inactive) | 96.8 µM (inactive) | > 100 µM (inactive) | 88.1 µM (inactive) | > 100 µM (inactive) | > 100 µM (inactive) | 64.4 µM (inactive) | > 100 µM (inactive) | > 100 µM (inactive) | 49.7 µM (inactive) | > 100 µM (inactive) | 23.5 µM (inactive) | > 100 µM (inactive) | > 100 µM (inactive) | > 100 µM (inactive) | 77.3 µM (inactive) | 63.8 µM (inactive) | > 100 µM (inactive) | 89.1 µM (inactive) | 
CN(C)c1ccc(/C=C2\N=C(NNc3ccccc3)NC2=O)cc1 | 26.2 µM (inactive) | 15.6 µM (inactive) | 28.4 µM (inactive) | 14 µM (inactive) | 30.3 µM (inactive) | 16.9 µM (inactive) |  | 37.3 µM (inactive) | 17.9 µM (inactive) | 38.2 µM (inactive) | 19.1 µM (inactive) | 18.8 µM (inactive) | 24.2 µM (inactive) | 31.8 µM (inactive) | 13.2 µM (inactive) | 18.7 µM (inactive) | 27.3 µM (inactive) | < 0.01 µM (active) | 30.9 µM (inactive) | 
Cc1ccc(/N=C2\SC(=S)N(CCC[N+](C)(C)C)\C2=N/c2ccc(C)cc2)cc1 |  | 10.3 µM (inactive) |  | 15.9 µM (inactive) | 23.7 µM (inactive) | 14.8 µM (inactive) | 7.13 µM (inactive) | 21.1 µM (inactive) | 21.6 µM (inactive) | 18.1 µM (inactive) | 18.1 µM (inactive) |  |  | 14.5 µM (inactive) | 13.7 µM (inactive) | 2.49 µM (inactive) |  | 19.1 µM (inactive) | 15.4 µM (inactive) | 7.03 µM (inactive)
O=c1[nH]c(=S)c2cc3c(=S)[nH]c(=O)n(CCC(c4ccccc4)(c4ccccc4)c4ccccc4)c3nc2n1CCC(c1ccccc1)(c1ccccc1)c1ccccc1 | > 100 µM (inactive) | > 100 µM (inactive) | > 100 µM (inactive) | > 100 µM (inactive) | > 100 µM (inactive) |  | 24.8 µM (inactive) | > 100 µM (inactive) | > 100 µM (inactive) | > 100 µM (inactive) | > 100 µM (inactive) | > 100 µM (inactive) | > 100 µM (inactive) | > 100 µM (inactive) | > 100 µM (inactive) |  | > 100 µM (inactive) | 13.6 µM (inactive) |  | 
CC1=C(C)C(=O)OC(C(C)(O)C2(O)CC3OC34C3CC(O)C56OC5C=CC(=O)C6(C)C3CCC42C)C1 (stereo not given) | 2.5 µM (inactive) | 1.5 µM (inactive) | 3.4 µM (inactive) | 1.26 µM (inactive) | 11 µM (inactive) | 1.15 µM (inactive) | 0.927 µM (active) | 1.27 µM (inactive) | 1.21 µM (inactive) | 0.762 µM (active) | 1.45 µM (inactive) | 0.361 µM (active) | 4.71 µM (inactive) | 2.39 µM (inactive) | 2.87 µM (inactive) | 2.4 µM (inactive) | 1.64 µM (inactive) | 0.851 µM (active) | 1.85 µM (inactive) | 
